From patent US9567318B2, “Substituted pyrimidine compounds and uses thereof” (Memorial Sloan-Kettering Cancer Center, priority 2009, dated 2017)

What was measured:
[1] = test system: Hsp70 species from SKBr3 cancer cell extracts; test: Hsp70 competition assay using YK55 beads, SKBr3 extracts; assay type: binding, human
Protocol: FIG. 14. YK5 has a higher affinity for tumor Hsp70s and selectively kills cancer cells. (a-c) Cells were treated with the indicated concentrations of inhibitors for the times presented, and metabolically viable cells by Alamar blue uptake as described in Methods (a). Molecular markers of apoptosis (PARP and caspase-3 cleavage) were analyzed in cells treated for 24 h with indicated concentrations of inhibitors, by western blotting (b, c). Morphology of cells treated for 24 h with vehicle or the indicated inhibitors was analyzed by light microscopy (c). (d) Extracts (500 μg) were incubated overnight with beads containing D-biotin (75 μM) or the indicated concentrations of YK55 added to 50 μl streptavidin beads. HS=heat shocked. (e) SKBr3 (200 μg) and MRC-5 (400 μg) extracts and recombinant human Hsp70 (2 μg) were incubated for 3 h with the indicated concentrations with YK5, followed by precipitation of Hsp70 complexes on YK55-beads (50 μM YK55 added to 50 μl streptavidin beads). Data obtained from three independent experiments were graphed (right). Points, mean; bars, s.d.
In a second experiment, the ability of soluble YK5 to compete YK55-binding to normal and cancer cell Hsp70 species were tested (FIG. 14e). […] Interaction of YK5 was even weaker with recombinant human Hsp70 (FIG. 14e).
Hsp70 Competition Assay Using the YK55 Beads. […]

HSF-1 in SKBr3 cells = test: Native gel electrophoresis, HSF-1 activation; assay type: cell-based, human; details: 3 h
Protocol: FIG. 6. YK5 inhibits core biochemical functions of Hsp70s and disrupts the Hsp90/Hsp70 interaction. a) Refolding of denatured luciferase by Hsc70 and DJA2 at 30° C. was measured for the indicated times in the presence of YK5 (100 μM) or vehicle (left), or at 60 min in the presence of indicated concentrations of YK5 (right). b) Hsc70 ATPase rates were measured for reactions at 30° C. with the indicated combinations of Hsc70 and co-chaperones in the presence of vehicle (DMSO) or YK5 (100 μM). ADP production was monitored by thin layer chromatography separation of radiolabeled ADP from ATP and phosphorimaging analysis (lower). The data are consistent with those obtained from multiple repeat experiments (n≧2). c,d) SKBr3 cells were treated for 24 h with vehicle or indicated concentrations of YK5 (c) or for the indicated times with YK5 (10 μM) (d). Proteins isolated with anti-Hsp90 and Hsp70s antibodies (IP: Hsp90 or Hsp70), or present in the cell extract (Lysate) were analyzed by WB. Specificity of binding was tested with a control IgG. HC=heavy chain; DJA1 and Hdj1=Hsp40 isoforms. e) Unlike Hsp90 inhibitors, YK5 fails to activate HSF-1. […] Proteins were applied to a native gel and analyzed by immunoblotting. The data are consistent with those obtained from multiple repeat experiments (n≧3). f) YK5 was tested in the scanMAX screen (Ambit) against 359 kinases. […]

[2] = test system: MDA-MB-468 xenografted tumors; test: Tumor xenografts; assay type: in vivo; details: i.t., alternate days, mice
Protocol: FIG. 12. YK5 affects the major hallmarks of cancer: inhibits proliferation and invasiveness and arrests cancer cells in the cell cycle. (a) The indicated cancer cells were incubated with increasing concentrations of inhibitors and growth over 72 h was assessed. Y-axis values below 0% represent cell death of the starting population. Drugs were assayed in triplicate. (b) Mice (n=5) bearing MDA-MB-468 subcutaneously (s.c.) xenografted tumors that reached a volume of approximately 100-200 mm^3, were administered i.t. YK5 or vehicle as described in Methods. Tumor volume (mm^3) was estimated from caliper measurements. (c) Cells were treated for 24 h with indicated concentrations of YK5. DNA content was analyzed by propidium iodide staining and flow cytometry (left), whereas proteins by western blotting (right). (d) Hsp70 client proteins isolated by YK55-beads from SKBr3 and MDA-MB-468 extracts (500 μg) were analyzed by western blotting. […] (e) MDA-MB-231 breast cancer cells were treated for 24 h with YK5 (1 μM) and protein extracts were subjected to immunoblotting (upper) or pre-treated for 24 h with vehicle or YK5, and viable cells able to migrate through Matrigel over a 20 h period were quantified and data graphed (lower). […]
Tumor Xenografts. […] Tumor volume was determined by measurement with Vernier calipers, and tumor volume was calculated as the product of its length×width^2×0.4. […]

`C=CC(=O)Nc1cc(N)nc(Sc2c(OC)nc(N3CCN(C)CC3)nc2OC)n1` [YK5, N-(6-amino-2-(4,6-dimethoxy-2-(4-methylpiperazin-1-yl)pyrimidin-5-ylthio)pyrimidin-4-yl)acrylamide] was tested, and the “concentration competing binding of YK55-beads to Hsp70” value [1] was “low micromolar concentrations”, the HSF-1 activation (HSF-1 in SKBr3 cells) was “no effect” and the “growth of xenografted tumors” value [2] was “inhibited the growth of MDA-MB-468 xenografted tumors”.
